Measurements reported in patent US20080171732A1, “New Pyridine Analogues IX 519” (AstraZeneca AB, priority 2007, published 2008).

Molecular target: T1, P2Y12 receptor (Homo sapiens, UniProt Q9H244)
T1 construct: expressed in transfected cells; host or cells: CHO cells (membranes)
Assay: Functional inhibition of 2-Me-S-ADP induced P2Y12 signalling (35S-GTPγS, cell membranes from P2Y12 transfected CHO-cells)
Format: biochemical
Settings: EC80 concentration of agonist 2-methyl-thio-adenosine diphosphate, 30° C., 45 min
Protocol: Functional inhibition of-the P2Y12 receptor can be measured by in vitro assays using cell membranes from P2Y12 transfected CHO-cells, the methodology is indicated below.
(§1) Functional inhibition of 2-Me-S-ADP induced P2Y12 signalling: 5 μg of membranes were diluted in 200 μl of 200 mM NaCl, 1 mM MgCl2, 50 mM HEPES (pH 7.4), 0.01% BSA, 30μg/ml saponin and 10 μM GDP. To this was added an EC80 concentration of agonist (2-methyl-thio-adenosine diphosphate), the required concentration of test compound and 0.1 μCi ^35S-GTPγS. The reaction was allowed to proceed at 30° C. for 45 min. Samples were then transferred on to GF/B filters using a cell harvester and washed with wash buffer (50 mM Tris (pH 7.4), 5 mM MgCl2, 50 mM NaCl). Filters were then covered with scintilant and counted for the amount of ^35S-GTPγS retained by the filter. Maximum activity was that determined in the presence of the agonist and minimum activity in the absence of the agonist following subtraction of the value determined for non-specific activity. The effect of compounds at various concentrations was plotted according to the equation
y=A+((B−A)/(1+((C/x)̂D)))
and IC50 estimated where • A is the bottom plateau of the curve i.e. the final minimum y value • B is the top of the plateau of the curve i.e. the final maximum y value • C is the x value at the middle of the curve. This represents the log EC50 value when A+B=100 • D is the slope factor. • x is the original known x values. • Y is the original known y values.
as §1, with “30 μg/ml” for “30μg/ml”, “0. 1” for “0.1”

T1 sequence (Q9H244 whole entry): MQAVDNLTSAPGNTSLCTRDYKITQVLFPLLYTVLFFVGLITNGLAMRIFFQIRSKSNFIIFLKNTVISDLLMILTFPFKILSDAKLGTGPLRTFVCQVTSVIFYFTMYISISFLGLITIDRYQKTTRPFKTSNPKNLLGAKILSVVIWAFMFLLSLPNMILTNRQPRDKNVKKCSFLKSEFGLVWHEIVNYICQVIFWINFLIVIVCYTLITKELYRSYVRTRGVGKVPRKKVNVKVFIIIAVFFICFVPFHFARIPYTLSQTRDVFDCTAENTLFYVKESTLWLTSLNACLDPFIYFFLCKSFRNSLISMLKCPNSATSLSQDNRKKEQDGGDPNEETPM

Compound	IC50 [µM]
CCOC(=O)c1cc(C#N)c(N2CC(C(=O)NS(=O)(=O)Cc3ccccc3F)C2)nc1OCC [Example 40, Ethyl5-cyano-2-ethoxy-6-(3-{[(2-fluorobenzyl)sulfonyl]carbamoyl}azetidin-1-yl)nicotinate]	0.031
CCOC(=O)c1cc(C#N)c(N2CCC(C(=O)NS(=O)(=O)Cc3cccc(F)c3F)CC2)nc1OC [Example 19, Ethyl5-cyano-6-(4-{[(2,3-difluorobenzyl)sulfonyl]carbamoyl}piperidin-1-yl)-2-methoxynicotinate]	0.031
CCOC(=O)c1cc(C#N)c(N2CC(C(=O)NS(=O)(=O)Cc3ccccc3)C2)nc1COCc1ccc(OC)c(OC)c1 [Example 42, Ethyl6-{3-[(benzylsulfonyl)carbamoyl]azetidin-1-yl}-5-cyano-2-{[(3,4-dimethoxybenzyl)oxy]methyl}nicotinate]	0.135
CCOCc1nc(N2CCC(C(=O)NS(=O)(=O)Cc3ccccc3)CC2)c(C#N)cc1C(=O)OCC [Example 34, Ethyl6-{4-[(benzylsulfonyl)carbamoyl]piperidin-1-yl}-5-cyano-2-(ethoxymethyl)nicotinate]	0.034
CCOC(=O)c1cc(C#N)c(N2CCC(C(=O)NS(=O)(=O)Cc3ccc(Cl)cc3Cl)CC2)nc1OC [Example 15, Ethyl5-cyano-6-(4-{[(2,4-dichlorobenzyl)sulfonyl]carbamoyl}piperidin-1-yl)-2-methoxynicotinate]	0.022
CCOC(=O)c1cc(C#N)c(N2CCC(C(=O)NS(=O)(=O)Cc3ccccc3)CC2)nc1Cn1ccnn1 [Example 48]	0.032

Stronger by IC50, values ahead:

IC50 [µM]	Compound
0.005	CCOC(=O)c1cc(C#N)c(N2CC(C(=O)NS(=O)(=O)Cc3ccc(Cl)cc3Cl)C2)nc1OC [Example 28, Ethyl5-cyano-6-(3-{[(2,4-dichlorobenzyl)sulfonyl]carbamoyl}azetidin-1-yl)-2-methoxynicotinate]
0.018	CCOC(=O)c1cc(C#N)c(N2CC(C(=O)NS(=O)(=O)Cc3ccccc3)C2)nc1SC [Example 57, Ethyl6-{3-[(benzylsulfonyl)carbamoyl]azetidin-1-yl}-5-cyano-2-(methylthio)nicotinate]
0.009	CCOC(=O)c1cc(C#N)c(N2CC(C(=O)NS(=O)(=O)Cc3ccc(F)cc3Cl)C2)nc1OC [Example 30, Ethyl6-(3-{[(2-chloro-4-fluorobenzyl)sulfonyl]carbamoyl}azetidin-1-yl)-5-cyano-2-methoxynicotinate]
0.0077	CCOC(=O)c1cc(C#N)c(N2CCC(C(=O)NS(=O)(=O)Cc3ccccc3)CC2)nc1SC [Example 58, Ethyl6-{4-[(benzylsulfonyl)carbamoyl]piperidin-1-yl}-5-cyano-2-(methylthio)nicotinate]
0.009	CCOC(=O)c1cc(C#N)c(N2CCC(C(=O)NS(=O)(=O)Cc3ccccc3)CC2)nc1C#N [Example 5, Ethyl6-{4-[(benzylsulfonyl)carbamoyl]piperidin-1-yl}-2,5-dicyanonicotinate]
0.012	CCOC(=O)c1cc(C#N)c(N2CC(C(=O)NS(=O)(=O)Cc3ccc(C(F)(F)F)cc3)C2)nc1OC [Example 26, Ethyl5-cyano-2-methoxy-6-[3-({[4-(trifluoromethyl)benzyl]sulfonyl}carbamoyl)azetidin-1-yl]nicotinate]
0.012	CCOC(=O)c1cc(C#N)c(N2CCC(C(=O)NS(=O)(=O)Cc3ccccc3)CC2)nc1OCC [Example 3, Ethyl6-{4-[(benzylsulfonyl)carbamoyl]piperidin-1-yl}-5-cyano-2-ethoxynicotinate]
0.013	CCOC(=O)c1cc(C#N)c(N2CCC(C(=O)NS(=O)(=O)Cc3ccc(F)c(F)c3)CC2)nc1OC [Example 14, Ethyl5-cyano-6-(4-{[(3,4-difluorobenzyl)sulfonyl]carbamoyl}piperidin-1-yl)-2-methoxynicotinate]
0.015	Ethyl5-cyano-6-(3-{[(2-fluorobenzyl)sulfonyl]carbamoyl}azetidin-1-yl)-2-methoxynicotinate [Example 21]
